For experiment [1], the system named is phospho(Ser63)-c-jun in HK-2 cells. Kind of experiment: Cell-Based Assay for JNK Inhibitors (in-cell ELISA, phospho(Ser63)-c-jun after TNFα). Particulars: HK-2 cells (human proximal tubule cells), 60 minutes compound, then 10 ng/mL TNFα for 30 minutes. How it is done: Cell-Based Assay for JNK Inhibitors
The cell-based assay employed the in-cell ELISA method to determine the ability of compounds to prevent the generation of phospho(Ser63)-c-jun in HK-2 cells (human proximal tubule cells) in response to stimulation with tumor necrosis factor α (TNFα). In brief, for quantification of phospho(Ser63)-c-jun, the cells (in 96-well format) were fixed and permeablized then incubated sequentially with a rabbit anti-phospho-c-jun First Antibody specific for the presence of the phospho-Ser63 epitope and a donkey anti-rabbit IgG Second Antibody linked to horseradish peroxidase (HRP) for colorimetric quantitation of binding. […] Blank wells received no TNFα stimulation or compound. Additional Control wells received TNFα stimulation, but no compound.
Stock cultures of HK-2 cells (ATCC, Manassas, Va.) were grown under a 5% CO2/[…] atmosphere at 37 degrees C. in Keratinocyte-SFM medium (KSFM, Invitrogen, Grand Island, N.Y.) containing 5 μg/L epidermal growth factor and 5 mg/L bovine pituitary extract (both supplied with the medium), additionally supplemented with 10% (v/v) fetal calf serum (FCS; Invitrogen, Grand Island, N.Y.) and 1% (v/v) antibiotic-antimycotic (ABAM: Sigma, St. Louis, Mo.). For assays, cells were seeded in collagen coated 96-well polystyrene plates (BD Biosciences, Franklin Lakes, N.J.) at a density of 40,000 cells/well and cultured for 24 h in the same medium (100 μL/well) followed by a further 16-24 h in 100 μL of similar medium, but without FCS. […] Plates were then allowed to stand at room temperature for 20 minutes before being washed with 200 μL/well of PBS. (Further steps were performed immediately or the plates were stored at 4 degrees C. and the assay completed the next day.) To each well was added 100 μL 1% (v/v) TritonX-100 (Sigma, St. Louis, Mo.) in PBS followed by 20 minutes standing at room temperature, washing with 200 μL/well PBS, the addition of 100 μL/well of Quenching buffer (1% (v/v) hydrogen peroxide (Sigma, St. Louis, Mo.) and 0.1% (w/v) sodium azide (Fisher Scientific, Fair Lawn, N.J.)) in PBS and a further 20 minutes at room temperature. Plates were then washed twice with 200 μL/well of 0.1% (v/v) Tween-20 (Teknova, Hollister, Calif.) in PBS before addition of 200 μL/well of 2% BSA/0.1% Tween-20 in PBS and a further 1 hour at room temperature. […] After a further one hour, rabbit anti-phospho-c-jun-Ser63 is added directly to the solution in the Blank wells resulting in 1:250 dilution of this antibody. Plates were then placed on a slowly rotating platform at 4 degrees C. overnight. Wells were then washed thrice with 200 μL/well PBS/0.1% Tween-20. After addition of the third wash, the plates were placed on a slowly rotating platform for 15 minutes at room temperature. The final PBS/Tween20 wash was then replaced with 100 μL/well of donkey anti-rabbit HRP-labeled Second Antibody (Jackson ImmunoResearch Laboratory, West Grove, Pa.) diluted 1:10,000 in Antibody Dilution Buffer and the plates placed on a slowly rotating platform for 1 hour at room temperature. Wells were then washed four times with 200 μL/well PBS/0.1% Tween-20, including slow rotation for 30 minutes for the third wash and 10 minutes for the final wash. The wells were then washed once with 200 μL PBS without Tween-20. […] Absorbance was determined at a 450 nm wavelength using a spectrophotometer (Molecular Devices SpectraMax 250).

In experiment [2] the target is JNK1 (Homo sapiens (Human), UniProt P45983). The experiment can be described thus: In Vitro JNK1 Assay (TR-FRET, phosphorylation of GST-c-Jun). It is filed as biochemical. Summed up: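 GST-c-Jun (residues 1-79) phosphorylation by JNK1 in 50 mM HEPES pH 7.0, MgCl2, 1 mM DTT, 0.1 mM Na3VO4, 0.2 mg/mL BSA, 30 min at room temperature. Stopped with EDTA plus anti-phospho-c-Jun antibody and read by TR-FRET 1 hr later. IC50 from percent inhibition over 10 serial dilutions.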
For orientation: TR-FRET usually uses a lanthanide donor and a delayed reading to cut background.

[3] abbreviates: 0.2 nM active JNK1 kinase, 26.7 nM GST-c-Jun, 2 μM ATP, 30 min at room temperature.

Structures can show the parent of a compound that is named as a salt. Where two headings read alike, the source gives them in different places.

In general, EC50 refers to the concentration needed to bring the measured effect to its halfway point. One may read the IC50 as the midpoint of a concentration-inhibition curve. Higher therefore signals a need for much substance.

JNK1, sequence (P45983 whole entry, the tested form may be a part): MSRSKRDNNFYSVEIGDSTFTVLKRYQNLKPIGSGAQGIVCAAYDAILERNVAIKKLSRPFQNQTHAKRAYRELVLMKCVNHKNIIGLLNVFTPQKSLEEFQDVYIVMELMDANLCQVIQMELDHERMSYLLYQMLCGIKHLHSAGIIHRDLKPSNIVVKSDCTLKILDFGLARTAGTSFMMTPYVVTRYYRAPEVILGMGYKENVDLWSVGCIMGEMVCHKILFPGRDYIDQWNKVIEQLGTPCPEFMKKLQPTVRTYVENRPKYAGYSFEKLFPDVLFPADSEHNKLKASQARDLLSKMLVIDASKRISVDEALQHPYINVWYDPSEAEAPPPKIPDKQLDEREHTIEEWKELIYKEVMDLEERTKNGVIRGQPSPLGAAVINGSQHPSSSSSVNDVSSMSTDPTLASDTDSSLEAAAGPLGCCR

As for `O=C(NCc1cn(-c2ccccc2)c2cc(Cl)ccc2c1=O)c1ccc(N2C[C@@H]3C[C@H]2CN3)nc1` (stereo in doubt) [Example I-89, trifluoroacetate], in experiment [1], the response was half-maximal at 31000 nM (EC50). This counts as double-digit micromolar.

Take `O=C(NCc1c(-c2ncco2)n(-c2ccccc2)c2cc(Cl)ccc2c1=O)c1ccn(Cc2ccccc2)c(=O)c1` [Example I-1, 1-Benzyl-2-oxo-1,2-dihydro-pyridine-4-carboxylic acid (7-chloro-2-oxazol-2-yl-4-oxo-1-phenyl-1,4-dihydro-quinolin-3-ylmethyl)-amide]: the IC50 in experiment [2] (setting [3]) was found to be 1 nM. A half-maximal response in experiment [1] (EC50) required 500 nM.

Take `O=C(NCc1c(-c2ncco2)n(-c2ccccc2)c2cc(Cl)ccc2c1=O)c1ccnc(N2CCOCC2)c1` [Example I-2, N-(7-Chloro-2-oxazol-2-yl-4-oxo-1-phenyl-1,4-dihydro-quinolin-3-ylmethyl)-2-morpholin-4-yl-isonicotinamide]: the IC50 in experiment [2] (setting [3]) stood at 7 nM. In experiment [1], the EC50 amounted to 2700 nM.

Take `O=C(NCc1c(-c2ncco2)n(-c2ccccc2)c2cc(Cl)ccc2c1=O)c1ccc(N2CCOCC2)nc1` [Example I-3, N-(7-Chloro-2-oxazol-2-yl-4-oxo-1-phenyl-1,4-dihydro-quinolin-3-ylmethyl)-6-morpholin-4-yl-nicotinamide]: the midpoint of inhibition in experiment [2] (setting [3]), the IC50, lay at 9 nM. Moreover, a half-maximal response in experiment [1] (EC50) required 3100 nM.

`NC(=O)c1ccc(C(=O)NCc2c(-c3ncco3)n(-c3ccccc3)c3cc(Cl)ccc3c2=O)cc1` [Example I-4, N-(7-Chloro-2-oxazol-2-yl-4-oxo-1-phenyl-1,4-dihydro-quinolin-3-ylmethyl)-terephthalamide] registered an IC50 in experiment [2] (setting [3]) of 14 nM. This compound returned an EC50 in experiment [1] of 3000 nM.

`O=C(NCc1c(-c2ncco2)n(-c2ccccc2)c2cc(Cl)ccc2c1=O)c1ccc(N2CCCCC2)nc1` [Example I-7, 3,4,5,6-Tetrahydro-2H-[1,2′]bipyridinyl-5′-carboxylic acid (7-chloro-2-oxazol-2-yl-4-oxo-1-phenyl-1,4-dihydro-quinolin-3-ylmethyl)-amide] yielded an IC50 in experiment [2] (setting [3]) of 14 nM. For the same compound, the EC50 in experiment [1] turned out to be 4500 nM.

For `O=C(NCc1c(-c2ncco2)n(-c2ccccc2)c2cc(Cl)ccc2c1=O)c1ccc2c(c1)OCO2` [Example I-8, Benzo[1,3]dioxole-5-carboxylic acid (7-chloro-2-oxazol-2-yl-4-oxo-1-phenyl-1,4-dihydro-quinolin-3-ylmethyl)-amide], the IC50 in experiment [2] (setting [3]) came out at 25 nM. The EC50 in experiment [1] was 4200 nM.

`O=C(NCc1c(-c2ncco2)n(-c2ccccc2)c2ncccc2c1=O)c1ccn(Cc2ccccc2)c(=O)c1` [Example I-9, 1-Benzyl-2-oxo-1,2-dihydro-pyridine-4-carboxylic acid (2-oxazol-2-yl-4-oxo-1-phenyl-1,4-dihydro-[1,8]naphthyridin-3-ylmethyl)-amide] returned an IC50 in experiment [2] (setting [3]) of 4 nM. In experiment [1], this compound gave an EC50 of 1200 nM.

`O=C(NCc1c(-c2ncco2)n(-c2ccccc2)c2ncccc2c1=O)c1ccc(N2CCOCC2)nc1` [Example I-10, 6-Morpholin-4-yl-N-(2-oxazol-2-yl-4-oxo-1-phenyl-1,4-dihydro-[1,8]naphthyridin-3-ylmethyl)-nicotinamide] gave an IC50 in experiment [2] (setting [3]) of 29 nM. A half-maximal response in experiment [1] (EC50) required 5200 nM.

As to `Cn1cc(C(=O)NCc2c(-c3ncco3)n(-c3ccccc3)c3ncccc3c2=O)cn1` [Example I-11, 1-Methyl-1H-pyrazole-4-carboxylic acid (2-oxazol-2-yl-4-oxo-1-phenyl-1,4-dihydro-[1,8]naphthyridin-3-ylmethyl)-amide], the IC50 in experiment [2] (setting [3]) was determined as 47 nM. In addition, the EC50 in experiment [1] stood at 15000 nM.

As for `O=C(NCc1c(-c2ncco2)n(-c2ccccc2)c2ncccc2c1=O)c1ccc(N2CCC(CO)CC2)nc1` [Example I-12, 4-Hydroxymethyl-3,4,5,6-tetrahydro-2H-[1,2′]bipyridinyl-5′-carboxylic acid (2-oxazol-2-yl-4-oxo-1-phenyl-1,4-dihydro-[1,8]naphthyridin-3-ylmethyl)-amide], the IC50 in experiment [2] (setting [3]) turned out to be 7 nM. Moreover, in experiment [1], the concentration for a half-maximal effect (EC50) came out at 2500 nM.

Compound `CN(C)C(=O)c1c(CNC(=O)c2ccc(N3CCOCC3)nc2)c(=O)c2ccc(Cl)cc2n1-c1ccccc1` [Example I-13, 7-Chloro-3-{[(6-morpholin-4-yl-pyridine-3-carbonyl)-amino]-methyl}-4-oxo-1-phenyl-1,4-dihydro-quinoline-2-carboxylic acid dimethylamide] registered an IC50 in experiment [2] (setting [3]) of 35 nM. Further, the midpoint of the response in experiment [1], the EC50, lay at 37000 nM.

`CN(C)C(=O)c1c(CNC(=O)c2cnc(N3CCOCC3)s2)c(=O)c2ccc(Cl)cc2n1-c1ccccc1` [Example I-14, 7-Chloro-3-{[(2-morpholin-4-yl-thiazole-5-carbonyl)-amino]-methyl}-4-oxo-1-phenyl-1,4-dihydro-quinoline-2-carboxylic acid dimethylamide] displayed an IC50 in experiment [2] (setting [3]) of 36 nM. Besides, a half-maximal response in experiment [1] (EC50) required 25000 nM.

As to `COc1ccc(C(=O)NCc2c(C(=O)N(C)C)n(-c3ccccc3)c3cc(Cl)ccc3c2=O)cc1` [Example I-15, 7-Chloro-3-[(4-methoxy-benzoylamino)-methyl]-4-oxo-1-phenyl-1,4-dihydro-quinoline-2-carboxylic acid dimethylamide], in experiment [2] (setting [3]), 64 nM corresponded to half-maximal inhibition (IC50). The same compound had an EC50 in experiment [1] of 54000 nM.

In experiment [1], `O=C(NCc1cn(-c2ccccc2F)c2cc(F)ccc2c1=O)c1cnn(-c2ccccc2)c1` [Example I-103, 1-Phenyl-1H-pyrazole-4-carboxylic acid [7-fluoro-1-(2-fluoro-phenyl)-4-oxo-1,4-dihydro-quinolin-3-ylmethyl]-amide] registered an EC50 of 12000 nM.

Take `COC(=O)c1c(CNC(=O)c2cnc(N3CCOCC3)s2)c(=O)c2ccc(Cl)cc2n1-c1ccccc1` [Example I-116, Chloro-3-{[(2-morpholin-4-yl-thiazole-5-carbonyl)-amino]-methyl}-4-oxo-1-phenyl-1,4-dihydro-quinoline-2-carboxylic acid methyl ester]: a half-maximal response in experiment [1] (EC50) required 2200 nM. Against the preceding compound, the EC50 is about 5.5-fold lower.

Compound `COC(=O)c1c(CNc2nccc3ccccc23)c(=O)c2ccc(Cl)cc2n1-c1ccccc1` [Example I-207, 7-Chloro-3-(isoquinolin-1-ylaminomethyl)-4-oxo-1-phenyl-1,4-dihydro-quinoline-2-carboxylic acid methyl ester] came in with an IC50 in experiment [2] (setting [3]) of 110 nM. This counts as sub-micromolar.

In the case of `COC(=O)c1c(CNC(=O)N2CCOCC2)c(=O)c2ccc(Cl)cc2n1-c1ccccc1` [Example I-209, 7-Chloro-3-{[(morpholine-4-carbonyl)-amino]-methyl}-4-oxo-1-phenyl-1,4-dihydro-quinoline-2-carboxylic acid methyl ester], the IC50 in experiment [2] (setting [3]) was 150 nM.

In experiment [2], `COC(=O)c1c(CNC(=O)Oc2ccccc2)c(=O)c2ccc(Cl)cc2n1-c1ccccc1` [Example I-210, 7-Chloro-4-oxo-3-(phenoxycarbonylamino-methyl)-1-phenyl-1,4-dihydro-quinoline-2-carboxylic acid methyl ester] returned an IC50 of 1100 nM.

`COC(=O)c1c(CN(C)C(=O)c2ccc(S(C)(=O)=O)cc2)c(=O)c2ccc(Cl)cc2n1-c1ccccc1` [Example I-211, 7-Chloro-3-{[(4-methanesulfonyl-benzoyl)-methyl-amino]-methyl}-4-oxo-1-phenyl-1,4-dihydro-quinoline-2-carboxylic acid methyl ester]: the midpoint of inhibition in experiment [2] (setting [3]), the IC50, lay at 920 nM.
